Common to all, as to assay type: in vivo
Data set [1] has as its system rats with small-focus myocardial infarction. Put plainly: Experimental therapy of rats with small-focus myocardial infarction. The text has this: The ability of the pharmaceutical composition for parenteral use comprising the active substance 1-adamantylethyloxy-3-morpholino-2-propanol or pharmaceutically acceptable salts thereof allows its use for treatment of cardiomyopathies of various geneses (alcoholic, infectious, toxic, and metabolic).
This allows to use it for treatment of various forms of coronary artery disease, including unstable angina pectoris, stable rest and exertional angina pectoris, angina pectoris of intact vessels, acute coronary syndrome (including early postinfarction angina pectoris), myocardial infarction (large-focus and small-focus, repeated and recurrent) post resuscitation disease (state after emergency procedures), treatment and prevention of ischemic myocardial postreperfusion injuries after thrombolysis, stenting, balloon angioplasty, coronary vessels atheroctomy, postinfarction myocardiosclerosis, cardiomyopathies of various genesis (alcoholic, infectious-toxic, and metabolic), heart rhythm disorders, diabetic angiopathies and complications thereof.

The subject of data set [2] is cats. Put plainly: Coronary blood flow and haemodynamics in cats after intravenous administration. To be noted: 3, 5, and 10 mg/kg intravenously. The text has this:
The ability of the pharmaceutical composition for parenteral use comprising the active substance 1-adamantylethyloxy-3-morpholino-2-propanol or pharmaceutically acceptable salts thereof to improve myocardial perfusion indicates to appropriateness of its use in acute coronary syndrome.

Data set [3] deals with rats with acute adrenal cardiomyopathy. Briefly: Acute adrenal cardiomyopathy simulation in rats, preventive single administration. To be noted: single doses of 15, 30, 50 and 100 mg/kg one hour before simulation. The text has this: This allows to use it for treatment of various forms of ischemic heart disease, including unstable angina pectoris, stable rest and exertional angina pectoris, angina pectoris of intact vessels, acute coronary syndrome (including early postinfarction angina pectoris), myocardial infarction (large-focus and small-focus, repeated and recurrent) post resuscitation disease (state after emergency procedures), and cardiomyopathies of various genesis (alcoholic, infectious-toxic, and metabolic).

[4] abbreviates: 10 mg/kg once a day for 96 hours of ischemia.

For the compound `OC(COCCC12CC3CC(CC(C3)C1)C2)CN1CCOCC1` (stereo not shown) [1-adamantylethyloxy-3-morpholino-2-propanol], in data set [1] (10 mg/kg once a day for 96 hours), the “bcl-2 antiapoptotic protein expression” value is listed as “promoted the increasing of bcl-2 antiapoptotic protein expression”. In data set [1] (setting [4]), the “RNA content and transcriptional activity of cardiomyocytes” value was “increasing of RNA content and transcriptional activity”; the “c-fos protein content in cardiomyocytes” value is listed as “promoted the increasing of c-fos protein content in cardiomyocytes”; the cardiomyocytes nuclei density result is “retention of cardiomyocytes nuclei density”; the “percentage of necrotic cardiomyocytes” value was “the percentage of necrotic cardiomyocytes is reduced”. Moreover, the “manifestations of endothelial dysfunction and nitrosating stress” value in data set [1] (3, 10, 20, 50 and 100 mg/kg once a day for 96 hours of ischemia) is “promoted to reduce manifestations of endothelial dysfunction and nitrosating stress”. For the same compound, in data set [2], the coronary blood flow entry was “stimulates coronary blood flow”; the hypotension result is listed as “not accompanied by hypotension”; the “peripheral vasodilatation, venous inflow and cardiac output” value is “not associated with peripheral vasodilatation, decreased of venous inflow and cardiac output”. Moreover, the mortality entry in data set [3] is “promoted the reducing mortality in rats”.

These data come from patent publication US9795609B2, “Pharmaceutical composition of 1-adamantylethyloxy-3-morpholino-2-propanol or pharmaceutically acceptable salts thereof for the treatment of cardiovascular disease” (priority 2012, dated 2017).
